Entries after “also recorded” stand apart in the source; their conditions may differ.
How the values were obtained:
CRH NBRE = assay: EMSA of synoviocyte nuclear extracts with CRH NBRE; assay type: cell-based, human; conditions: synoviocytes stimulated 1 h; 25 μM forskolin, 10 ng/ml TNFα, IL-1β or PGE2
Procedure: To analyze the effects of cytokines on the ability of NURR1 to bind DNA, EMSA was performed to examine the binding properties of NURR1 to the consensus sequence (NBRE) in the human CRH promoter. […] Binding of the larger protein complex, and to a lesser extent the smaller complex, was inhibited by 50× molar excess of unlabeled homologous oligonucleotide.
Nuclear extracts from untreated, 25 μM forskolin (FOR) or lOng/ml TNFα treated synoviocytes (1 h) were compared for increased binding to the α^32 P-labeled CRH NBRE. DNA-protein interactions were assayed in the presence of 50× molar excess of homologous oligonucleotide or NURR1 specific antiserum (NURR1 Ab).
Nuclear protein extracts were prepared as previously described (Murphy and Conneely, 1997). For the EMSAs, 1 μg of nuclear extract was incubated for 20 mins in the presence of 20 mM Hepes (pH 7.9), 5 mM MgCl2, 20% glycerol, 100 mM KCL, 0.2 mM EDTA, 8% Ficoll, […], 500 ng/μl poly (deoxyinosinicdeoxycytidylic) acid, 50 mM dithiothreitol (DTT) and [α-^32P]-dCTP labeled doublestranded oligonucleotide. For supershifts experiments, antibodies to NURR1 (Santa Cruz Biotechnology, Santa Cruz, Calif.) were added following the initial 20-minute incubation, then incubated for an additional 20 minutes. The samples were electrophoresed through a 5.5% non-denaturing polyacrylamide gel in 0.5× TrisBorate-EDTA (TBE) buffer. For competition studies, the reaction was performed as described with the indicated concentrations of unlabeled probe. The oligonucleotide CRH NBRE 5′-[…]-3′ (SEQ ID NO:152) was used in the mobility shift assay.

NURR1 mRNA = assay: Northern blot of NURR1 mRNA in primary synoviocytes; assay type: cell-based, human; conditions: for NURR1 mRNA levels after stimulation: 25 μM forskolin, 20 ng/ml PMA, 10 ng/ml TNFα, IL-1β, IL-6, 1 μM PGE2, CRH
Procedure: Regulation of gene expression by the protein kinase A and C pathways represent important signaling events in RA synoviocytes (Ben-Av et al., 1995; Crofford et al., 1994; Firestein and Manning, 1999). […] To investigate the involvement of the protein kinase C signaling pathways in NURR regulation, synoviocytes were treated with phorbal myristic acetate (PMA). […] In contrast, dexamethasone had little effect on forskolin- or PMA-induced NUR77 levels.
In FIG. 4 total RNA was extracted and northern blot analysis was performed. Filters were hybridized with a cDNA for NURR1 or NUR77 and also with GAPDH to control for loading and transfer. Synovial explants were left untreated [C] or incubated with 10^−8M CRH for the indicated times. (FIG. 4A) Confluent monolayers of primary synoviocytes were left untreated [C] or pretreated with 10^−8M dexamethasone (DEX) for 2 h prior to the addition of 25μM forskolin (FOR) or 20 ng/ml of phorbal myristic acetate (PMA). (FIG. 4B)
Therefore the pathological importance of the NURR transcription factors in inflammatory joint disease was further examined by determining the ability of pro-inflammatory agonists to regulate NURR transcript levels in primary synoviocytes and synovium explant tissue (FIG. 6).
For FIG. 6 each membrane was reprobed with a GAPDH cDNA to control for loading and transfer. NURR1 mRNA levels were measured by northern analysis using total RNA extracted from synoviocytes left untreated [C] or cultured for the time indicated with (A) TNFα (10 ng/ml) in the presence or absence of pre-treatment with 10^−8M dexamethasone (DEX). (B) IL-1β(10 ng/ml) in the presence or absence of pretreatment with 2 μM indomethacin (INDO) or 10^−8M DEX. (C) or synovial explants cultured with IL-6 (10 ng/ml). (D) 1 μM PGE2. (E) 25 μM forskolin (FOR) or […] for 1h in the absence or presence of 5 µg/ml cycloheximide (CHX).
Northern analysis of primary RA synoviocytes were untreated (lane 1) or treated for 1 hour with TNFα (lane 2), IL-1β (lane 3), and PGE2 (lane 4). TNFα and IL-1β were used at a concentration of 10 ng/mL and PGE2 was at a concentration of 10^-6 M.
Total RNA was isolated from cultured primary synoviocytes or synovial explants. RNA was quantitated by UV absorption and 10 μg of total RNA were electrophoresed on a standard northern gel and transferred to nylon membrane (BioRad, Richmond, Calif.). NURR1 and NUR77 cDNA probes (Murphy and Conneely, 1997), spanning the amino terminal region to avoid cross-hybridization, were radiolabeled to a high specific activity using [α-^32P] dCTP and a random primer labeling system (Promega, Madison, Wis.). Blots were exposed to film at −80° C. using intensifying screens and autoradiographic intensity was quantitated using an imaging densitometer.

Row | binding of nuclear protein complexes with the CRH NBRE (CRH NBRE) | Molecule | NURR1 mRNA levels after stimulation (NURR1 mRNA) | effect in stimulating NURR1 mRNA compared with the other agonists (NURR1 mRNA; PGE2 1 μM, 10^-6 M)
1 | significant increased binding | CCCCC[C@H](O)/C=C/[C@H]1[C@H](O)CC(=O)[C@@H]1C/C=C\CCCC(=O)O [PGE2, reference compound] | rapid and marked increase | most potent and sustained effect
2 |  | IL-6: pro-inflammatory cytokine | did not significantly induce | 
3 | significant increased binding | TNFα | rapid and marked increase; also recorded: increased | 
4 | significant increased binding | IL-1β: pro-inflammatory cytokine | rapid and marked increase | 

Source: patent US20020049151A1, “Therapeutic approaches to diseases by suppression of the NURR subfamily of nuclear transcription factors” (priority 2000, published 2002)
